Reference: US20150328221A1, “COMPOUNDS FOR PROTECTION OF PHOTORECEPTOR CELLS AND FOR ENHANCING VISUAL FUNCTION UNDER LOW LIGHT CONDITIONS” (Allergan, Inc., priority 2014, published 2015)
Entries after “also recorded” stand apart in the source; their conditions may differ.

What was measured:
rod photoreceptors = assay: Scotopic flash ERG (a- and b-wave) after blue light-induced injury, model of dry AMD; format: in vivo, rat; conditions: for protection of retinal signaling: doses greater of 1 mg/kg, blue-light induced damage model in rodent; for protection of rod photoreceptors from blue light-induced injury: model of dry AMD
Description: Seven days after exposure to 10,000 lux blue light, the amplitude of a- and b-wave components of the electroretinogram (ERG) is reduced to 20-30% of its pre-exposure amplitude (FIG. 4A). The ERG signals from median respondents in each group are shown in the inset in A. The tracing designated “α” illustrates the signal evoked in a naïve animal when stimulated with 20 candela-sec/m^2 white light. […] Full dose response showing the dose and corresponding retinal concentration of zalospirone is shown in the bar graph (FIG. 4A).
Seven days after exposure to 10,000 lux blue light, the amplitude of a- and b-wave components of the electroretinogram (ERG) is reduced to 20-30% of its pre-exposure amplitude (A). Full dose response showing the dose and corresponding retinal concentration of eptapirone is shown in the bar graph (A). The respective doses and corresponding retinal concentrations achieved following subcutaneous administration of eptapirone are shown on the abscissa. Data is plotted as the mean±SEM percentage of a- or b-wave measured prior to blue light-induced retinal degeneration. Protection of retinal architecture measured as the area of the outer nuclear layer (B) or the size of the lesion (C) in a section taken through the vertical meridian of the eye. H&E stained sections of from the median respondent, naïve and vehicle- or drug-treated animals illustrate the level protection achieved by treatment with 0.3 mg/kg eptapirone.
(§1) Bilateral flash ERG recordings on the dual dome Espion E^3 system (Diagnosys, LLC) were made prior to (baseline) and on the Day of zalospirone administration. Animals were anesthetized with a cocktail of 30 mg/mL Ketamine/0.2 mg/mL Dexmedetomidine (i.m.) to reach a final dose of 15 mg/kg Ketamine and 0.1 mg/kg Dexmedetomidine. Animals' eyes were given 1 drop each of 1% phenylephrine, 0.5% atropine and 1% proparacaine, sequentially. Noninvasive platinum wire loop electrodes moisturized with artificial tears (Goniovisc, Sigmapharmaceuticals, Inc.) were placed over the eyes, a reference electrode were placed in the bridge of the nose and a ground wire into the tail. Scotopic ERG measurements were made at 1e^−5 to 20 cd s/m^2. Photopic ERG measurements for S- and M-cone function were made at 8e^−4 to 40 cd s/m^2. The recording filter was set at 300 Hz.
(§2) Protection of rod photoreceptors by zalospirone from light induced injury is exemplified in FIG. 4 and by eptapirone in FIG. 5 below. Doses greater of 1 mg/kg provide 100% protection of structural integrity of the outer nuclear layer and 80% of retinal signaling in a blue-light induced damage model in rodent.

[1] = test system: rod photoreceptors / outer nuclear layer; assay: Histological analysis (H&E) of retinal architecture after blue light-induced injury; format: in vivo, rat; conditions: for retinal lesion (loss of photoreceptors) measured in the vertical meridian of the eye: blue light injury, maximal damage 1.5 mm superior to the optic nerve head; for protection of structural integrity of the outer nuclear layer: doses greater of 1 mg/kg, blue-light induced damage model in rodent; for outer nuclear cell count and retinal structure (H&E stained retinas): post-blue light, drug-treated vs naive and vehicle-treated retinae
Procedure: Protection of retinal architecture measured as the total count of photoreceptors (FIG. 4B) or the size of the lesion (FIG. 4C) in the section taken through the vertical meridian of the eye. (FIG. 4D) H&E stained sections of from the median respondent, naïve and vehicle- or drug-treated animals illustrate the level protection achieved by treatment with 1 mg/kg zalospirone.
On Day 7 post BL-exposure, animals were anesthetized with Euthasol and decapitated. Following decapitation, bilateral globes were enucleated and marked at the 12:00 position with black tissue ink. Both eyes from each animal were incubated in 5 mL of Davidson's fixative special overnight at RT. After ˜24 hours, both eyes were dehydrated in 50% ethanol (EtOH) for 1 hour at RT followed by storage in 70% EtOH at RT until paraffin processing. Eyes were then shipped to Premier Lab (Longmont, Colo.) for paraffin processing and embedding. Five micrometer thick paraffin sections were cut through the optic nerve head and mounted on glass.
For each eye, three H&E-stained slides were generated. Slides containing H&E-stained cross sections were imaged using the Nanozoomer whole slide scanner employing a 40× objective under bright field optics.
as §2

5-HT1A receptor = target: T1, 5-HT1A receptor (Homo sapiens, UniProt P08908); conditions: description of the compound; cited from earlier work
T1 sequence (P08908 1-422): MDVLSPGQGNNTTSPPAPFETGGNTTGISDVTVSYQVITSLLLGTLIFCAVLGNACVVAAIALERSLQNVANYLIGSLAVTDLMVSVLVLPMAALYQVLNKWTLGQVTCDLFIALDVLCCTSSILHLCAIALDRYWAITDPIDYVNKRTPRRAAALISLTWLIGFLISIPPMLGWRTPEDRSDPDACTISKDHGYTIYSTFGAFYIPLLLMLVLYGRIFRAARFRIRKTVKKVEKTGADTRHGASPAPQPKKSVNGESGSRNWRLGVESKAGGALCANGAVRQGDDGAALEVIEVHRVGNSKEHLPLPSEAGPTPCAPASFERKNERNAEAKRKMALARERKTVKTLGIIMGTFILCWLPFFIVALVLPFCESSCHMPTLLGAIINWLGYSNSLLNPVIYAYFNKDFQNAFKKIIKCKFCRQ

cone photoreceptors [2] = assay: Photopic ERG for S- and M-cone function after blue light-induced injury; format: in vivo, rat; conditions: pretreatment with 3 mg/kg; 7 days after 10,000 lux blue light
Description: (§3) FIG. 6A to 6E illustrate that zalospirone protects cone photoreceptors from blue light-induced injury in a model of dry AMD. […] The amplitude of the medium-wave (blue- and green-light responsive) cone driven ERG signals were reduced by >90% while the short-wave (ultra violet and blue-light responsive) cone signals were virtually eliminated (A, B).
as §1
The protection of cone photoreceptors by zalospirone from light induced injury is exemplified in FIG. 6 below.

cone photoreceptors [3] = assay: Anti-opsin immunofluorescence in retinal cross sections after blue light-induced injury; format: in vivo, rat; conditions: pretreatment with 3 mg/kg
Description: as §3
A subset of 5 μm thick paraffin sections cut through the vertical meridian (prepared by Premier Labs) was not stained with H&E, but instead was subjected to anti-opsin immunofluorescent staining to detect both SW and M/L cones. Briefly, sections were baked at 60° C. for 1 hr, deparaffinized in xylene, rehydrated in a decreasing series of alcohols, rinsed in PBS 3×, and blocked in PBS containing 0.1% Tween 20, 0.1% Triton×100, and 5% normal donkey serum for 2 hr at RT. Slides were reacted 0/N at 4° C. with a combined mixture of anti-SW (SCBT; SC-14363) and -M/L (Millipore, Ab5405) opsin antibodies diluted to 1:200 and 1:500, respectively in a PBS buffer containing 0.1% Tween 20, 0.1% Triton×100, and 5% normal donkey serum. To control for specificity of staining, an additional subset of slides were reacted with a combined mixture of anti-SW opsin antibody preadsorbed with sc-14363/blocking peptide and normal rabbit IgG. […] The number of SW and M/L cones was manually counted for both slides from each study eye in dual channel fluorescent images. […]

retinal signaling = assay: Full-field ERG (modified ISCEV protocols) in normal animals, scotopic and photopic; format: in vivo, rat
Procedure: FIG. 7 illustrates that zalospirone selectively enhances the scotopic b-wave. Visual function was assessed in vivo in the rat using standard ISCEV protocols. Measurements were made under scotopic (dark-adapted) conditions (“A”-“C”) or photopic conditions (“D”,“E”). In dark adapted animals, ERG recordings elicited by low intensity stimuli (1×10^−4 candela-sec m^2) treatment with 3 mg/kg zalospirone results in a 50% enhancement of the b-wave (“A”). […] Under photopic conditions signals predominately driven by the cone photoreceptors, the photopic b-wave (“D”) or ERG response to 20 Hz flicker (“E”) were unaffected by treatment with zalospirone (3 mg/kg).
FIG. 8 “A” to “C” illustrates that zalospirone selectively enhances the scotopic b-wave.
as §1
In addition to protecting retinal photoreceptors and preserving their function during exposure to an insult, the enhancement or normalization of retinal signaling after injury would be provide significant value in degenerative retinal diseases. The International Society for Clinical Electrophysiology of Vision (ISCEV) provides standards for ascertaining the effects of interventions on retinal signaling. […] Expanding on the observation that scotopic signaling was enhanced in normal animals, it was hypothesized that zalospirone could contribute to the normalization of retinal signaling following injury.

scotopic b-wave = assay: Scotopic b-wave ERG with treatment after blue light-induced injury; format: in vivo, Sprague Dawley rat; conditions: single subcutaneous 3 mg/kg given after blue light injury (3.5 hour, 10,000 lux); stimulus 10^−5 candela-sec/m^2; N=8
Procedure: FIGS. 9A and 9B illustrate that treatment with zalospirone restores of the amplitude of the scotopic b-wave following light induced injury. FIG. 9A is a representative ERG recordings from a Sprague Dawley rat which was dark adapted overnight and exposed to white light stimulus (10^−5 candela-sec/m^2) are shown at baseline before injury, 7 days following exposure to a 3.5 hour exposure to 10,000 lux blue light and again at 3 days later following a single subcutaneous administration to 3 mg/kg zalospirone. […] The data are presented as mean±SEM, N=8.
as §1, with “The recording filter was set at 300 Hz.” left out

[4] = 7 days after 10,000 lux blue light
[5] = 3 mg/kg, dark adapted, 20 candela-sec m^2
[6] = 3 mg/kg, photopic conditions, normal animals

Row | Structure (SMILES) | protection of retinal signaling (rod photoreceptors) [%] | protection of rod photoreceptors from blue light-induced injury (rod photoreceptors; [4]) | retinal lesion (loss of photoreceptors) measured in the vertical meridian of the eye [1] | protection of structural integrity of the outer nuclear layer [1] [%] | outer nuclear cell count and retinal structure (H&E stained retinas) [1] | 5-HT1A receptor activity (5-HT1A receptor) | protection of the ERG signal (rod photoreceptors; median animal dosed with 3 mg/kg, 7 days after 10,000 lux blue light, 20 candela-sec/m^2 white light stimulus) | photopic b-wave amplitude (medium-wave and short-wave cone driven ERG signals) (cone photoreceptors [2]) | cones by short wave and medium/long wave opsin immunofluorescent staining (cone photoreceptors [3]) | rod-based signaling (scotopic b-wave) (retinal signaling; 3 mg/kg, dark adapted rats, low intensity stimuli ≦10^−3 candelas-sec/m^2) | retinal oscillatory potentials (retinal signaling; [5]) | scotopic b-wave at greater intensity stimuli (retinal signaling; [5]) | enhancement of the scotopic b-wave (retinal signaling; 3 mg/kg, dark adapted, low intensity stimuli 1×10^−4 candela-sec m^2) [%] | ERG response to 20 Hz flicker (retinal signaling; [6]) | photopic b-wave (retinal signaling; [6]) | scotopic signaling, modified ISCEV full-field electroretinography (retinal signaling; rat) | scotopic b-wave amplitude after injury compared with baseline (scotopic b-wave)
1 | Cn1c(=O)cnn(CCCCN2CCN(c3ncccn3)CC2)c1=O [eptapirone, 4-Methyl-2-[4-(4-pyrimidin-2-yl-piperazin-1-yl)-butyl]-2H-[1,2,4]triazine-3,5-dione] | 80 | protects rod photoreceptors from blue light-induced injury | almost entirely prevents this lesion from forming | 100 | maintains outer nuclear cell count but also normalizes retinal structure | very potent and highly selective 5-HT1A receptor full agonist | – | – | – | – | – | – | – | – | – | – | –
2 | O=C1[C@@H]2C3C=CC([C@H]4CC[C@@H]34)[C@@H]2C(=O)N1CCCCN1CCN(c2ncccn2)CC1 [zalospirone, (3aα,4α,4aβ,6aβ,7α,7aα)-hexahydro-2-(4-(4-(2-pyrimidinyl)-1-piperazinyl)butyl)-4,7-etheno-1H-cyclobut(f)isoindole-1,3(2H)-dione] | 80 | protects rod photoreceptors from blue light-induced injury | almost entirely prevents this lesion from forming | 100 | maintains outer nuclear cell count but also normalizes retinal structure | selective 5-HT1A partial agonist | complete protection | significantly protected; also recorded: largely restored ERG signaling | virtually identical to that in naïve animals; also recorded: prevents the loss of cones | preferentially augments rod-based signaling | neither the b-wave (“B”) nor the retinal oscillatory potentials (“C”) were affected | neither the b-wave (“B”) nor the retinal oscillatory potentials (“C”) were affected | 50 | unaffected | unaffected | selectively enhanced scotopic signaling | fully restored the b-wave to its baseline amplitude; also recorded: restored b-wave amplitudes to the baseline levels
